Reference: patent US8481708B2, “snRNA gene-like transcriptional units and uses thereof” (Università degli Studi di Genova, priority 2005, dated 2013)

Tested on: RNA Polymerase III
Assay: Promoter activity transfection assay with Pol III inhibitor ML-60218
Type: cell-based, human
Details: after 24 hours of cell treatment with ML-60218 (20 μM); hairpin constructs with novel promoters
Experimental: For transient transfections Hela cells (grown in DMEM supplemented with 10% FCS), were grown in multiwell Petri dishes 16 hours before transfection. The expression [21A, 21A(1), 21A(2), 21A(3)] constructs containing the regions of interest cloned in the pTopo vectors (Invitrogen) were introduced into the cells using the Fugene 6 transfection reagent (Roche) according to the manufacturer's instructions. A plasmid Expressing Luciferase was used as control of transfection efficiency (to which all the results were normalized). 24, 48 and 72 hours after transfection cells were harvested and firely luciferase activity was measured by Dual-Luciferase reporter assay system (Promega). manufacturer's protocol.

luciferase signal: increased
Compound: Cc1c(-c2cc(NS(=O)(=O)c3ccccc3Cl)n(C)n2)sc2ccc(Cl)cc12 [ML-60218]
